Laboratory results taken from US20240315991A1, “USES OF HNF4 ALPHA AGONISTS” (Sanford Burnham Prebys Medical Discovery Institute, priority 2023, published 2024).
Entries after “also recorded” stand apart in the source; their conditions may differ.

Assays:
[1] = system: C57BL/6 mice fed high fat diet (HFD); experiment: HFD induced weight gain and hepatic steatosis, NCT in HFD chow for 10 weeks; assay type: in vivo
Description: (§1) NCT oral administration. Four-week-old male C57BL/6J (JAX cat #000664) mice were purchased from Jackson laboratory and were maintained in a 12 h light/dark cycle throughout the experiment. Prior to the experiments, mice were acclimated for 2 weeks. Six-week-old mice with similar body weights were randomized to a normal diet (NC), a high fat diet (HFD) (Research Diets, cat #D12492 60 kcal % fat) or HFD containing 4000 ppm NCT (HFD+NCT) (Research Diets, 60 kcal % fat+4000 ppm NCT), which was calculated to provide approximately 400 mg/kg/d NCT. HFD chow containing NCT was made with gray dye to distinguish it from regular HFD chow that had green dye. Mice for each treatment group were placed in separate cages. Equal amounts of fresh chow were provided every week to all mice. Body weight gain and food intake were measured every week for 10 weeks. After 10 weeks of chow treatment, mice were sacrificed for analysis. All animal experiments were approved by the Institutional Animal Care and Use Committee (IACUC) of the Sanford Burnham Prebys Medical Discovery Institute in accordance with national regulations. Sample size was chosen based on the prior study of NCT delivered by IP injection.
Sample collection. Mouse samples were collected as described previously. Briefly, on the final day of treatment mice received dextrose (3 g/kg of body weight) by IP injection to stimulate insulin secretion, which inhibits FFA release from adipocytes, leaving liver-derived FFA as the major source of circulating FFA. One hour later, blood samples were collected via retro-orbital bleeding and mice were euthanized using pentobarbital. Mice were dissected aseptically and liver, epididymal fat, and body weights were measured and pictures taken. Dissected liver samples were washed immediately in sterile cold PBS and cut into small pieces. Half of the liver samples were snap frozen using liquid nitrogen and stored at −80° C. for RNA, protein isolation, and liver lysate preparations. The other half were fixed in 4% of cold paraformaldehyde (PFA, Santa Cruz Biotechnology, USA) and processed for histomorphometry and immunofluorescence.
Oil Red O staining (in vivo) and analysis. Oil red O staining was performed as described previously. Slides containing frozen liver tissue sections from mice were air dried for 10-20 min followed by rehydration in distilled water. Sections were immersed in absolute propylene glycol (Cat #151957, MP Biomedicals, LLC, USA) for 2 min followed by 0.5% in Oil red O solution (Cat #K043, Poly Scientific R&D, USA) for 2 h. Slides were then differentiated in 85% propylene glycol solution, washed with dH2O for 2 h, and mounted using glycerin jelly mounting medium. All slides were scanned at a magnification of ×20 using the Aperio Scanscope FL system (Aperio Technologies Inc., Vista, CA, USA). The liver area stained with oil red O was measured using image J software as described, with some modifications as follow, Oil red O-stained liver images were opened in Image J software. Using the Analyze>Set Scale command, the scale bar of the images was set to 200 μm. RGB images were then converted into grayscale images using the Image>Type>RGB Stack command and were split into red, blue and green channels. Using the Image>Adjust>Threshold command, the threshold was manually set to highlight the Oil red O-stained lipid droplets in the green channel. The same threshold was used for all the images in all treatment groups and the % oil red O-stained area was obtained using the Analyze->Measure tool command. Fold change was calculated by normalizing the values to images from mice fed normal chow.
Triglyceride analysis. The TG level in mouse liver, serum, and stool was measured according to manufacturer's instructions using the Triglyceride calorimetric Assay Kit (Cat #10010303, Cayman Chemicals, USA). Liver and stool TG was normalized with liver and stool weight, respectively. Fold change was calculated by normalizing to values from mice fed NC. […]

[2] = system: DNA encoding the mitochondrial genes 16s rRNA; experiment: Mitochondrial DNA analysis of liver, 16s rRNA; assay type: in vivo; conditions: mouse liver, HFD+NCT vs HFD, FIG. 3L
Description: as §1
Quantification of mtDNA was performed. […]

[3] = system: Sirt3 mRNA; experiment: RT-PCR of mouse liver, Sirtuin3; assay type: in vivo; conditions: HFD+NCT vs HFD, FIG. 4E
Description: as §1, with “All animal experiments were approved by the Institutional Animal Care and Use Committee (IACUC) of the Sanford Burnham Prebys Medical Discovery Institute in accordance with national regulations. Sample size was chosen based on the prior study of NCT delivered by IP injection.” left out
(§2) RT-PCR. […] Quantitative real time PCR (RT-PCR) analysis was performed using SYBR® Select Master Mix (Applied Biosystems) and an ABI 7900HT thermal cycler (Applied Biosystems, Thermo Fisher Scientific). Ct values were normalized to 18s rRNA and are expressed as fold change over samples from mice fed NC or cultured human hepatocytes without NCT.

[4] = system: Sirt1 mRNA; experiment: RT-PCR of mouse liver, Sirtuin1; assay type: in vivo; conditions: HFD+NCT vs HFD, FIG. 4D
Description: as §1, with “All animal experiments were approved by the Institutional Animal Care and Use Committee (IACUC) of the Sanford Burnham Prebys Medical Discovery Institute in accordance with national regulations. Sample size was chosen based on the prior study of NCT delivered by IP injection.” left out
as §2

[5] = system: TNFα mRNA; experiment: RT-PCR of mouse liver, TNFα; assay type: in vivo; conditions: HFD+NCT vs HFD, FIG. 5B
Description: as §1, with “All animal experiments were approved by the Institutional Animal Care and Use Committee (IACUC) of the Sanford Burnham Prebys Medical Discovery Institute in accordance with national regulations. Sample size was chosen based on the prior study of NCT delivered by IP injection.” left out
as §2

[6] = system: VDAC1; experiment: VDAC1 immunofluorescence of liver sections; assay type: in vivo, mouse; conditions: HFD+NCT vs HFD, FIGS. 3A-3C
Description: as §1, with “All animal experiments were approved by the Institutional Animal Care and Use Committee (IACUC) of the Sanford Burnham Prebys Medical Discovery Institute in accordance with national regulations. Sample size was chosen based on the prior study of NCT delivered by IP injection.” left out
Immunofluorescence. […] Slides were mounted using fluorescence mounting medium and images were obtained at ×40 magnification using an Olympus IX71 fluorescence microscope. Fluorescence intensity of HNF4α-stained nuclei and VDAC stained mitochondria was calculated using MetaMorph TL software (version 7.6.5.0, Olympus). Fold change was calculated by normalizing to values from mice fed NC.

[7] = HFD containing 4000 ppm NCT, end of the experiment at 10 weeks

In the case of `O=C(/C=C/c1ccc(O)c(O)c1)NCCc1ccc(O)cc1` [NCT, N-trans caffeoyltyramine], the “body weight compared with mice fed HFD alone” value ([1]; C57BL/6 mice, HFD containing 4000 ppm NCT, 10 weeks) is reported as “substantially less; also recorded: weighed less”, the “week at which lower body weight than HFD alone became evident” value ([1]; HFD containing 4000 ppm NCT) is reported as 5 week and the “body weight less than mice fed HFD” value [1, 7] is reported as roughly 10 g. The “difference in body weight vs mice fed HFD” value [1, 7] was 35-40%, the “Oil Red O staining of liver” value ([1]; HFD+NCT vs HFD, 10 weeks) was “decreased” and the liver redness ([1]; HFD+NCT vs HFD, 10 weeks) was “increase; also recorded: redder”. The liver size ([1]; HFD+NCT vs HFD, 10 weeks) was “reductions”, the liver weight ([1]; HFD+NCT vs HFD, 10 weeks) was “lower” and the obesity ([1]; HFD+NCT vs HFD, 10 weeks) was “markedly less obese”. For the same compound, the subcutaneous fat ([1]; HFD+NCT vs HFD, 10 weeks) was “substantially less”, the visceral adiposity ([1]; HFD+NCT vs HFD, 10 weeks) was “reductions” and the “hepatic TG level” value ([1]; HFD+NCT vs HFD, 10 weeks, normalized to liver weight) was “decreased”. The “epididymal fat pad weight” value ([1]; HFD+NCT vs HFD, end of study, normalized with total body weight) was “no change”, the “toxicity from NCT consumption” value ([1]; mice fed HFD containing NCT) was “no evidence of any toxicity” and the mitochondrial mass ([1]; mice fed HFD containing NCT vs HFD alone) was “increased”. The “level of DNA encoding the mitochondrial genes 16s rRNA” value [2] was “increase”, the “Sirt3 mRNA in mouse liver” value [3] was “reverse the depression” and the “Sirt1 mRNA in mouse liver” value [4] was “reverse the depression”. The “TNFα level in livers of mice on HFD” value [5] was “decreased”, the “TNFα level in livers of mice on HFD” value ([5]; listed as Compound A) was “decrease” and the “VDAC1 level in liver” value [6] was “reverse the depression”.
